Measured values: the supplement of paper PMC10627819

Tests used:
Assay in all cases: fitness (endpoint OD595 vs no drug) (fraction); higher = more growth
S. aureus Newman = system: S. aureus Newman
Summary of the method: (§1)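 Plates with 384 wells were inoculated at OD595 0.01 using 30 µl of TSB, LB Lennox or CY, or 55 µl for S. pneumoniae. Incubation was at 37 °C, with OD595 measured every 30 min for 14 h. Fitness is the stationary-phase transition optical density over the robust mean of no-drug control wells, after first-reading background subtraction; it is capped at 1.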

S. pneumoniae D39V = system: S. pneumoniae D39V
Summary of the method: as §1

S. aureus DSM 20231 = system: S. aureus DSM 20231
Summary of the method: as §1

B. subtilis 168 = system: B. subtilis 168
Summary of the method: as §1

CN(C)c1cc(NC(=O)CNC(C)(C)C)c(O)c2c1C[C@H]1C[C@H]3[C@H](N(C)C)C(O)=C(C(N)=O)C(=O)[C@@]3(O)C(O)=C1C2=O [Tigecycline] + Cn1nnc(-c2ccc(-c3ccc(N4C[C@H](CO)OC4=O)cc3F)cn2)n1 [Tedizolid]
fitness
Conditions | partner 0.03125 µg/mL | partner 0.0625 µg/mL | partner 0.125 µg/mL | partner 0.25 µg/mL | partner 0.5 µg/mL
S. aureus Newman, first compound 0.039 µg/mL | – | 0.972 | – | – | –
S. aureus Newman, first compound 0.078 µg/mL | – | 0.941 | 0.844 | 0.469 | –
S. aureus Newman, first compound 0.156 µg/mL | – | 0.965 | – | 0.466 | –
S. pneumoniae D39V, first compound 0.65 µg/mL | 0.923 | 0.934 | 0.81 | 0.653 | 0.379
S. pneumoniae D39V, first compound 1.3 µg/mL | 0.911 | 0.903 | 0.791 | 0.658 | 0.353
S. pneumoniae D39V, first compound 2.6 µg/mL | 0.884 | 0.943 | 0.827 | 0.669 | 0.375

CC(=O)Oc1ccccc1C(=O)O [Acetylsalicylic acid] + CN[C@@H]1[C@H](O)[C@H](NC)[C@H]2O[C@@]3(O)C(=O)C[C@@H](C)O[C@H]3O[C@@H]2[C@H]1O [Spectinomycin]
fitness
Conditions | partner 4 µg/mL | partner 8 µg/mL | partner 16 µg/mL
S. aureus DSM 20231, first compound 250 µg/mL | 0.871 | 0.866 | –
S. pneumoniae D39V, first compound 250 µg/mL | 0.934 | 0.911 | 0.817
S. pneumoniae D39V, first compound 500 µg/mL | 0.862 | 0.801 | 0.691
S. pneumoniae D39V, first compound 1000 µg/mL | 0.64 | 0.601 | 0.536

fitness, S. aureus DSM 20231, one replicate
Conditions | first compound 250 µg/mL | first compound 500 µg/mL | first compound 1000 µg/mL
partner 32 µg/mL | 0.541 | 0.631 | 0.101
partner 64 µg/mL | 0.253 | 0.32 | 0.042

CC(=O)Oc1ccccc1C(=O)O [Acetylsalicylic acid] + CO[C@@]12[C@H](COC(N)=O)C3=C(C(=O)C(C)=C(N)C3=O)N1C[C@@H]1N[C@@H]12 [Mitomycin C]
fitness
Conditions | first compound 250 µg/mL | first compound 500 µg/mL | first compound 1000 µg/mL
S. aureus DSM 20231, partner 0.0156 µg/mL | 0.731 | 0.612 | 0.446
S. aureus DSM 20231, partner 0.0312 µg/mL | 0.674 | 0.579 | –
S. aureus DSM 20231, partner 0.0625 µg/mL | 0.559 | 0.483 | –
S. pneumoniae D39V, partner 0.001075 µg/mL | ≥ 1 | ≥ 1 | ≥ 1
S. pneumoniae D39V, partner 0.002 µg/mL | 0.703 | 0.673 | 0.416
S. pneumoniae D39V, partner 0.00215 µg/mL | 0.888 | 0.904 | 0.868
S. pneumoniae D39V, partner 0.004 µg/mL | 0.733 | 0.657 | 0.426
S. pneumoniae D39V, partner 0.0043 µg/mL | 0.8 | 0.811 | 0.774
S. pneumoniae D39V, partner 0.008 µg/mL | 0.548 | 0.454 | 0.335

CN(C)[C@@H]1C(O)=C(C(N)=O)C(=O)[C@@]2(O)C(O)=C3C(=O)c4c(O)ccc(Cl)c4[C@@](C)(O)[C@H]3C[C@@H]12 [Chlortetracycline] + CN[C@H](CC(C)C)C(=O)N[C@H]1C(=O)N[C@@H](CC(N)=O)C(=O)N[C@H]2C(=O)N[C@H]3C(=O)N[C@H](C(=O)N[C@H](C(=O)O)c4cc(O)cc(O)c4-c4cc3ccc4O)[C@H](O)c3ccc(c(Cl)c3)Oc3cc2cc(c3O[C@@H]2O[C@H](CO)[C@@H](O)[C@H](O)[C@H]2O[C@H]2C[C@](C)(N)[C@H](O)[C@H](C)O2)Oc2ccc(cc2Cl)[C@H]1O [Vancomycin]
S. aureus DSM 20231, first compound 0.006 µg/mL, one replicate
Conditions | fitness
partner 0.1875 µg/mL | 0.806
partner 0.375 µg/mL | 0.776
partner 0.75 µg/mL | 0.79

Conditions | fitness
S. aureus DSM 20231, first compound 0.012 µg/mL, partner 0.1875 µg/mL | 0.541
S. aureus DSM 20231, first compound 0.012 µg/mL, partner 0.375 µg/mL | 0.499
S. aureus DSM 20231, first compound 0.012 µg/mL, partner 0.75 µg/mL | 0.548
S. aureus DSM 20231, first compound 0.024 µg/mL, partner 0.375 µg/mL | 0.28
S. aureus DSM 20231, first compound 0.048 µg/mL, partner 0.1875 µg/mL | 0.103
S. aureus DSM 20231, first compound 0.048 µg/mL, partner 0.375 µg/mL | 0.0854
S. aureus DSM 20231, first compound 0.048 µg/mL, partner 0.75 µg/mL | 0.0806
S. pneumoniae D39V, first compound 0.012 µg/mL, partner 0.03125 µg/mL | 0.883
S. pneumoniae D39V, first compound 0.012 µg/mL, partner 0.0625 µg/mL | 0.903
S. pneumoniae D39V, first compound 0.012 µg/mL, partner 0.125 µg/mL | 0.706
S. pneumoniae D39V, first compound 0.024 µg/mL, partner 0.03125 µg/mL | 0.832
S. pneumoniae D39V, first compound 0.024 µg/mL, partner 0.0625 µg/mL | 0.829
S. pneumoniae D39V, first compound 0.048 µg/mL, partner 0.03125 µg/mL | 0.734
S. pneumoniae D39V, first compound 0.048 µg/mL, partner 0.0625 µg/mL | 0.688
S. pneumoniae D39V, first compound 0.375 µg/mL, partner 0.125 µg/mL | 0.0536
S. pneumoniae D39V, first compound 0.375 µg/mL, partner 0.25 µg/mL | 0.0553
S. pneumoniae D39V, first compound 0.375 µg/mL, partner 0.5 µg/mL | 0.0628
S. pneumoniae D39V, first compound 0.75 µg/mL, partner 0.125 µg/mL | 0.0485
S. pneumoniae D39V, first compound 0.75 µg/mL, partner 0.25 µg/mL | 0.0618
S. pneumoniae D39V, first compound 0.75 µg/mL, partner 0.5 µg/mL | 0.0842
S. pneumoniae D39V, first compound 1.5 µg/mL, partner 0.125 µg/mL | 0.0391
S. pneumoniae D39V, first compound 1.5 µg/mL, partner 0.25 µg/mL | 0.0305
S. pneumoniae D39V, first compound 1.5 µg/mL, partner 0.5 µg/mL | 0.0442

CC(=O)Oc1ccccc1C(=O)O [Acetylsalicylic acid] + O=C(O[C@@H]1Cc2c(O)cc(O)cc2O[C@@H]1c1cc(O)c(O)c(O)c1)c1cc(O)c(O)c(O)c1 [EGCG]
fitness
Conditions | partner 12.5 µg/mL | partner 25 µg/mL | partner 50 µg/mL
S. aureus DSM 20231, first compound 250 µg/mL | 0.764 | 0.774 | 0.766
S. aureus DSM 20231, first compound 500 µg/mL | 0.735 | 0.767 | 0.72
S. aureus DSM 20231, first compound 1000 µg/mL | 0.616 | 0.621 | 0.598
S. pneumoniae D39V, first compound 250 µg/mL | 0.955 | 0.935 | 0.914
S. pneumoniae D39V, first compound 500 µg/mL | 0.927 | 0.929 | 0.851

O=C(O)c1cn(C2CC2)c2cc(N3CCNCC3)c(F)cc2c1=O [Ciprofloxacin] + N[C@@H]1CONC1=O [Cycloserine D]
fitness
Conditions | partner 0.125 µg/mL | partner 0.25 µg/mL | partner 0.375 µg/mL | partner 0.5 µg/mL | partner 0.75 µg/mL | partner 1.5 µg/mL
B. subtilis 168, first compound 0.0098 µg/mL | 0.891 | 0.85 | – | 0.901 | – | –
B. subtilis 168, first compound 0.0195 µg/mL | 0.684 | 0.653 | – | 0.679 | – | –
B. subtilis 168, first compound 0.039 µg/mL | 0.144 | 0.0682 | – | 0.12 | – | –
S. aureus Newman, first compound 0.0375 µg/mL | – | – | 0.7 | – | 0.682 | 0.689
S. aureus Newman, first compound 0.15 µg/mL | – | – | 0.0749 | – | 0.0416 | 0.047
